Data from patent publication US11806314B2, “PDE5 inhibitor powder formulations and methods relating thereto” (Respira Therapeutics, Inc., priority 2013, dated 2023).
Counter-ions that a name gives are not always drawn.

Legend:
Type in all cases: physicochemical
[1] = Dynamic vapor sorption (DVS) moisture sorption and desorption; details: 20° C.; for moisture sorption and desorption behavior: micronized, 0-80% P/Po
Method: DVS Analysis: No DVS results of these APIs have been previously reported. Moisture sorption and desorption behavior was assessed using a DVS-Advantage 1 (Surface Measurement Systems, Allentown, Pa.). Experimental parameters: sample % P/Po in a range of 0-80; 5% P/Po increment, equilibrium criteria, both sorption and desorption. Experiments conducted at 20° C.

[2] = Aerosol performance, Next Generation Impactor (NGI) with powder deaggregator and RS01 capsule piercing mechanism; details: pure drug (100% API)
From the text: There are several inertia sampling apparatuses that can be used to assess aerosol performance of dry powder formulations. (<601> Aerosols, Nasal Sprays, Metered-Dose Inhalers, and Dry Powder Inhalers Monograph, in USP 29-NF 24 The United States Pharmacopoeia and The National Formulary: The Official Compendia of Standards. 2006, The United States Pharmacopeial Convention, Inc.: Rockville, Md. p. 2617-2636 (“USP<601>”).) These apparatus classify aerosol particles on the basis of the particles' aerodynamic diameter. Each stage of the impactor includes a single or series of nozzles with specific cutoff size. Particles are entrained into the apparatus. Those having sufficient inertia will impact on that particular stage collection plate, while smaller particles with insufficient inertia will remain entrained in the airstream and pass to the next stage where the process is repeated. The aerodynamic size distribution of API can be assessed by collecting the deposited API mass and the ED %, RF %, FPF % and MMAD (μm) can be calculated from the API deposition pattern. The emitted dose fraction (ED (%); Eq. 4) is determined as the percentage powder mass emitted from the initial dosing chamber/capsule relative to the total dose in capsules (nominal dose) (TD). Emitted dose (ED) includes the sum of the API mass […] deposited on the device stages. Fine particle fraction (FPF (%); Eq. 5) is expressed as a percentage of fine particle dose (FPD) below a certain aerodynamic cutoff size to ED. Respirable fraction (RF (%); Eq. 6) is defined as the percentage of FPD to total dose (TD).
Formulation aerosol performance tests were carried out using a powder deaggregator modified from that described in U.S. Patent Publication Nos. 2013/0340754 and 2013/0340747 combined with an off-the-shelf RS01 dry powder inhaler capsule piercing mechanism (Plastiape, IT) feeding method. […] The experiments were conducted at an airflow rate that gave a system pressure drop of 2 kPa (about 40 L/min, 4 L inhalation volume duration: 5.5 sec) or 4 kPa (about 60 L/min, 4 L inhalation volume duration: 3.9 sec).
Packaging: The blends were packaged into size 3 HPMC capsules. Nominal dose amounts of 3 mg were prepared for each formulation; 10 mg nominal doses were also prepared for pure drug VarBase and Var(HCl)2·xH2O formulations.
Methods: Two inertial sampling systems were used to assess aerosol performance: (1) a Next Generation Impactor® (“NGI”) (Copley Scientific, Shoreview, Minn.), and (2) a Twin Stage Liquid Impinge (“TSLI”) (Copley Scientific, Shoreview, Minn.). Aerosol performance of the VarHCl·xH2O formulation was assessed using the TSLI device, while the other formulations were all assessed using the NGI device. The NGI experiments were carried out using methods in general agreement with the USP<601>, and the TSLI experiments were carried using methods in general agreement with the British Pharmacopoeia, 2007, Vol. IV, Appendix XIIF. A291 Aerodynamic assessment of fine particles, fine particle dose and particle size distribution. The NGI experiments were run at a controlled airflow rate that gave a pressure drop of either 2 or 4 kPa across the device. Specifically, at Q=61.4 L/min with a delay time of 3.9 sec; and at Q=43.4 L/min with a delay time of 5.5 sec. Before the aerosol testing, the NGI collection plates were coated with suitable coating. Mass median aerodynamic diameter (MMAD) of aerosol particles distribution was determined based on a log-probability distribution (API particle size versus API deposition percentage) obtained from the NGI data. The TSLI experiments were run at Q=60 L/min, 4 sec to achieve ΔP≈4 kPa, with a cutoff size of 6.4 μm.

[3] = Intrinsic stability testing (acid, base, oxidative degradation in solution) by HPLC; details: acidic, basic and oxidative conditions per ICH Guidance
Method: Method: VarHCl·3H2O, HPLC grade water, 36.5% HCl, NaOH pellets, 6% H2O2 were all purchased, and 1N HCl and 1N NaOH were prepared in house. Intrinsic stability testing was performed according to International Conference on Harmonization (ICH) Guidance for Industry Q1A(R2) Stability Testing of New Drug Substances and Products (November 2003, Rev. 2). Briefly, the compound was tested for acid hydrolysis (1N HCl) and base hydrolysis (1N NaOH) at r.t. for 48 hr and at 60° C. for 4 hr. Oxidation assessment (6% H2O2) was performed at r.t. for 48 hr. The stability of VarHCl·3H2O in solution was assessed using HPLC analysis as described above in Example 1, Section A.

[4] = Particle size analysis of micronized APIs by laser diffraction; details: micronized (jet-milled), dispersed in mineral spirit
Method: Var(HCl)2·xH2O, VarBase, and VarHCl·3H2O were purchased and then micronized using a commercial dry jet-miller. The jet milling was achieved using typical jet milling conditions and a single milling process. As shown in Example 5, micronization leads to partial dehydration of VarHCl·3H2O. As such, following micronization and absent rehydration, the compound is designated as VarHCl·xH2O.
The APIs were dispersed in mineral spirit, and particle size analysis was performed by laser diffraction using a Microtrac×100 Particle Size Analyzer. Particle size span was calculated as
[formula] where Dv0.1, Dv0.5 and Dv0.9 are 10%, 50% and 90% of the volume size distributed below the respective values.

[5] = 3 mg dose, dihydrochloride hydrate

## CCCc1nc(C)c2c(=O)[nH]c(-c3cc(S(=O)(=O)N4CCN(CC)CC4)ccc3OCC)nn12 [VarHCl, vardenafil hydrochloride]
[1]; hydrochloride
  moisture sorption and desorption behavior: highly hygroscopic
[1]; sorption phase
  relative humidity at which a first water molecule bound to form a monohydrate: 5%

## CCCc1nc(C)c2c(=O)[nH]c(-c3cc(S(=O)(=O)N4CCN(CC)CC4)ccc3OCC)nn12 [Var(HCl)2•xH2O (rehydrated), dihydrochloride hydrate]
[2]; [5]
  ED(%): 71.4%
  FPF(ED)(%): 63.6%
  MMAD: 1.37 μm
  RF(%): 45.4%

## CCCc1nc(C)c2c(=O)[nH]c(-c3cc(S(=O)(=O)N4CCN(CC)CC4)ccc3OCC)nn12 [VarHCl·3H2O, vardenafil hydrochloride trihydrate]
[1]; desorption phase
  relative humidity below which water loss occurred: lower than 15%
[1]; desorption phase, hydrochloride trihydrate
  humidity range in which the trihydrate form is stable / maintained: 10-80 % RH
[1]; sorption phase
  relative humidity up to which integrity is maintained (not reaching deliquescence): up to 80 % RH
[3]
  extent of degradation: significant in basic and oxidative conditions

## CCCc1nc(C)c2c(=O)[nH]c(-c3cc(S(=O)(=O)N4CCN(CC)CC4)ccc3OCC)nn12 [VarBase, 2-[2-ethoxy-5-(4-ethylpiperazin-1-yl)sulfonylphenyl]-5-methyl-7-propyl-1H-imidazo[5,1-i][1,2,4]triazin-4-one]
[2]; 3 mg dose
  ED(%): 81.8%
  FPF(ED)(%): 56.0%
  MMAD: 1.32 μm
  RF(%): 45.8%
[2]; 10 mg dose
  ED(%): 64.2%
  FPF(ED)(%): 37.2%
  MMAD: 1.51 μm
  RF(%): 23.9%
[1]
  moisture sorption and desorption behavior: no hydration occurred
[4]
  DV50: 1.557 μm
  Span: 1.557
